# Read-outs that look alike come from different tables or passages of the source.
# Target: T1, G1 APOL1 (Homo sapiens, UniProt O14791, I384M/S342G)
# T1 construct: expressed in transfected cells
# T1 sequence (O14791 28-398 S342G/I384M): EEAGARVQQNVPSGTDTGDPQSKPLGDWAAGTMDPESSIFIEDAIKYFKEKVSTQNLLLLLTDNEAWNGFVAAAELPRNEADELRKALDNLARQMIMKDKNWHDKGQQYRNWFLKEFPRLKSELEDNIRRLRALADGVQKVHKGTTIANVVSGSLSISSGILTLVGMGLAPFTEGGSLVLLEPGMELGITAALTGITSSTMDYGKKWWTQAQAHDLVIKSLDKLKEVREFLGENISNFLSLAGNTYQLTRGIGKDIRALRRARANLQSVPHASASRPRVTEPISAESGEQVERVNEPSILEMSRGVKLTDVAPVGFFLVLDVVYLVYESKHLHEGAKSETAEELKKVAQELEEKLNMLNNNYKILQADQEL
# Assay: Acute APOL1 Thallium Assay with inducible stable clones of HEK 293 cells
# Type: cell-based
# Conditions: read-out: Thallium Assay (IC50)
# Outline: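 Readout: Tl+-triggered fluorescence, FLIPR, reflecting potassium flux through APOL1 pores after cells take up an AM-ester thallium indicator. Cells: HEK T-Rex stable clone G1 DC3.25, APOL1 G1 induced by tetracycline, seeded 26000 per well.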
# [1] = HEK 293 T-Rex cells expressing G1 APOL1
SMILES,"IC50 (Table 24, Compounds 287 to 465) [nM]",IC50 [1] [nM]
C[C@H](NC(=O)C1CC(Cc2c(-c3ccc(F)cc3)[nH]c3c(F)cc(F)cc23)C1)C(C)(C)O (some centres unmarked) [Compound 329],> 1000,
O=C(NC[C@H](O)C(F)(F)F)NC[C@H]1C[C@H](c2c(-c3ccc(F)cc3)[nH]c3c(F)cc(F)cc32)C1 [Compound 406],> 1000,
O=C(N[C@H]1C[C@H](O)C1)[C@H]1C[C@@H](c2c(-c3ccc(F)cc3)[nH]c3c(F)cc(F)cc32)C1 [Compound 267],,> 1000
O=C(NC[C@@H](O)C(F)(F)F)NC[C@H]1C[C@H](c2c(-c3ccc(F)cc3)[nH]c3c(F)cc(F)cc32)C1 [Compound 424],> 1000,
O=C(NCc1ccc(=O)[nH]c1)C1CC(Cc2c(-c3ccc(F)cc3)[nH]c3c(F)cc(F)cc23)C1 (centres unmarked) [Compound 346],> 1000,
CC(C)(NCC1CC(c2c(-c3ccc(F)cc3)[nH]c3c(F)cc(F)cc23)C1)C(=O)NCC(F)(F)F (centres unmarked) [Compound 442],> 1000,
O=C(N[C@@H]1CC[C@H](O)C1)[C@H]1C[C@H](c2c(-c3ccc(F)cc3)[nH]c3c(F)cc(F)cc32)C1 [Compound 180],,> 1000
Cc1noc(CNC(=O)C2CC(Cc3c(-c4ccc(F)cc4)[nH]c4c(F)cc(F)cc34)C2)n1 (centres unmarked) [Compound 304],> 1000,
NC(=O)C(CO)NCC1CC(c2c(-c3ccc(F)cc3)[nH]c3c(F)cc(F)cc23)C1 (centres unmarked) [Compound 437],250 to 1000,
O=C(N[C@H](CO)C(F)(F)F)O[C@H]1C[C@H](c2c(-c3ccc(F)cc3)[nH]c3c(F)cc(F)cc32)C1 [Compound 362],> 1000,
CC(C)(O)CNC(=O)NC[C@H]1C[C@H](c2c(-c3ccc(F)cc3)[nH]c3c(F)cc(F)cc32)C1 [Compound 423],> 1000,
CC1(C(=O)NCCO)CC(c2c(-c3ccc(F)cc3)[nH]c3c(F)cc(F)cc23)C1 (mixture of isomers) [Compound 283],,250 to 1000

# Next, values leading:
"IC50 (Table 24, Compounds 287 to 465) [nM]",IC50 [1] [nM],SMILES
> 1000,,O=C(NC1(CCO)CC1)C1CC(Cc2c(-c3ccc(F)cc3)[nH]c3c(F)cc(F)cc23)C1 (centres unmarked) [Compound 311]
> 1000,,Cn1cncc1CNC(=O)C1CC(Cc2c(-c3ccc(F)cc3)[nH]c3c(F)cc(F)cc23)C1 (centres unmarked) [Compound 344]
> 1000,,CC(O)(CO)CNC(=O)C1CC(Cc2c(-c3ccc(F)cc3)[nH]c3c(F)cc(F)cc23)C1 (centres unmarked) [Compound 324]
,250 to 1000,CC(C)(CO)NC(=O)[C@H]1C[C@@H](c2c(-c3ccc(F)cc3)[nH]c3c(F)cc(F)cc32)C1 [Compound 256]
,> 1000,Cn1nccc1CNC(=O)[C@H]1C[C@@H](c2c(-c3ccc(F)cc3)[nH]c3c(F)cc(F)cc32)C1 [Compound 265]
250 to 1000,,O=C(CN[C@H]1C[C@H](c2c(-c3ccc(F)cc3)[nH]c3c(F)cc(F)cc32)C1)NCO [Compound 289]
> 1000,,O=C(CC1CC(c2c(-c3ccc(F)cc3)[nH]c3c(F)cc(F)cc23)C1)N[C@@H]1CCNC1=O (some centres unmarked) [Compound 457]
> 1000,,CC(C)[C@@H](CO)NC(=O)O[C@H]1C[C@H](c2c(-c3ccc(F)cc3)[nH]c3c(F)cc(F)cc32)C1 [Compound 377]
,250 to 1000,O=C(NCC(F)F)[C@H]1C[C@@H](c2c(-c3ccc(F)cc3)[nH]c3c(F)cc(F)cc32)C1 [Compound 238]
> 1000,,CC(C)NC(=O)CN[C@H]1C[C@H](c2c(-c3ccc(F)cc3)[nH]c3c(F)cc(F)cc32)C1 [Compound 290]
250 to 1000,,COCC(C)NC(=O)O[C@H]1C[C@H](c2c(-c3ccc(F)cc3)[nH]c3c(F)cc(F)cc32)C1 (mixture of isomers) [Compound 360]
> 1000,,CC[C@@H](CO)NC(=O)NC[C@H]1C[C@H](c2c(-c3ccc(F)cc3)[nH]c3c(F)cc(F)cc32)C1 [Compound 421]
> 1000,,Cc1cnc(CNC(=O)O[C@H]2C[C@H](c3c(-c4ccc(F)cc4)[nH]c4c(F)cc(F)cc43)C2)o1 [Compound 374]
,< 250,CC1(C(=O)NC2(CO)CC2)CC(c2c(-c3ccc(F)cc3)[nH]c3c(F)cc(F)cc23)C1 (mixture of isomers) [Compound 281]
